# Measured values published in patent US20060211725A1, “Use” (Astellas Pharma Inc., priority 2002, published 2006).
# “Also recorded” adds a separate entry of the source.
# Tests used:
# [1] = system: F344 kidney allograft in LEW recipient rats; experiment: Recipient kidney function, treatment with brief tacrolimus (Example 4); format: in vivo, rat
# Description: The rats and kidney transplantation methods described in Example 1 were used. Tacrolimus at dose of 1 mg/kg from day 0 to day 9 after transplantation, and the compound (I) at doses of 10 mg/kg and 15 mg/kg from day 28 today 60 after transplantation were administered orally to recipient rats. In this study LEW recipients were briefly treated with oral tacrolimus at 1 mg/kg/day for 10 days after transplantation to avoid acute rejection and slow chronic rejection that gradually destroys the F344 kidney graft, resulting in functional and histological changes similar to the chronic rejection in human. The isograft, untreated allograft and allograft treated with tacrolimus 1 mg/kg for 10 days alone served as control groups. Blood and urine samples were collected once a week from recipients with kidney grafts described in Example 1 for measuring their plasma creatinine and proteinuria. Plasma creatinine was tested by Sigma Creatinine Kit and proteinuria by Bio-Rad Protein assay.
# [2] = system: F344 kidney allograft in LEW recipient rats; experiment: Kidney graft histology, modified Banff criteria (Example 1); format: in vivo, rat; details: for Banff grade: Fibro-intimal Hyperplasia / Banff grade: Glomerulitis / Banff grade: Glomerulosclerosis / Banff grade: Inflammation / Banff grade: Mesangiolysis / Banff grade: Transplant Glomerulopathy / Banff grade: Tubular Atrophy / Banff grade: Tubulitis / Banff grade: Vasculitis: graft day 90, one line per rat; for approximate cumulative reduction in Banff score: fibro-intimal hyperplasia / approximate cumulative reduction in Banff score: glomerulitis / approximate cumulative reduction in Banff score: glomerulosclerosis / approximate cumulative reduction in Banff score: interstitial inflammation / approximate cumulative reduction in Banff score: mesangiolysis / approximate cumulative reduction in Banff score: transplant glomerulopathy / approximate cumulative reduction in Banff score: tubular atrophy / approximate cumulative reduction in Banff score: tubulitis / approximate cumulative reduction in Banff score: vasculitis: vs untreated allograft control
# Description: Inbred male Lewis rats (LEW) (RT1^I), weighing 250-300 g, were used as kidney transplantation recipients. Inbred male LEW and Fisher (F344) (RT1^IvI), weighing 250-350 g, were used as isograft and allograft donor rats, respectively. Kidney transplantation was performed using the modified technique of Fisher and Lee. [Fisher et al., Surgery, 58:904-914, 1965] Survival of kidney transplant was measured as time of recipient rat survival. Blood and 24 hr urine samples were collected once a week for plasma creatinine, proteinuria, and the measurement of antibody titer against donor glomeruli basement membrane protein (GBM). Kidney grafts were harvested on the 90th day posttranspalantation and subjected to histology and reverse transcriptase-polymerase chain reaction (RT-PCR) analysis. The compound (I), at doses of 10 mg/kg and 20 mg/kg were administered orally to recipient rats daily from day 0 to day 9 after transplantation. Control isograft and allograft recipients received no drug after transplantation.
# Kidney graft tissues were harvested from recipients on day 90th after transplantation for histological analysis. Graft samples were fixed in 10% NBF and subsequently processed then immediately embedded in ParaPlast™ paraffin embedding media. Samples were sectioned at 3 μm, pre-warmed, deparaffinized, rehydrated, and subsequently stained in one of four processes: Hematoxylin and Eosin, Per-Iodic Acid Schiff, Verhoeff's Combined Elastic Trichrome, and Per-Iodic Acid Silver Methenamine. Histological sections were blindly evaluated by two histologists and scored semiquantitatively based on modified Banff' criteria for transplant pathology. [Solez et al., Kidney Int., 44:411-422, 1993]
smiles,measurement,setting,value
"C#CCC/C(O)=C(\C#N)C(=O)Nc1ccc(C(F)(F)F)cc1 [Compound (I), (2Z)-2-cyano-3-hydroxy-N-[4-(trifluoromethyl)phenyl]-2-hepten-6-ynamide]",proteinuria,[1]; Compound (I) 10 mg/kg day 28 to 60 after brief tacrolimus 1 mg/kg day 0-9,decreased the progression of proteinuria
same,plasma creatinine level,"[1]; Compound (I) 10 mg/kg day 28 to 60 after brief tacrolimus 1 mg/kg day 0-9, entire study period",< 1.5 mg/dL
same,proteinuria,[1]; Compound (I) 15 mg/kg day 28 to 60 after brief tacrolimus 1 mg/kg day 0-9,decreased the progression of proteinuria
same,plasma creatinine,"[1]; Compound (I) 15 mg/kg/day day 28 to 60 after brief tacrolimus, increased from week 3 to week 9",it was reversed and maintained in a normal level
same,Banff grade: Fibro-intimal Hyperplasia,[2]; 10 mg from day 0-9,"++ ((++):Grade 2, Moderate); also recorded: − ((−):Grade 0, Normal)"
same,Banff grade: Glomerulitis,[2]; 10 mg from day 0-9,"+ ((+):Grade 1, Mild); also recorded: − ((−):Grade 0, Normal)"
same,Banff grade: Glomerulosclerosis,[2]; 10 mg from day 0-9,"− ((−):Grade 0, Normal); also recorded: + ((+):Grade 1, Mild)"
same,Banff grade: Inflammation,[2]; 10 mg from day 0-9,"+ ((+):Grade 1, Mild); also recorded: ++ ((++):Grade 2, Moderate)"
same,Banff grade: Mesangiolysis,[2]; 10 mg from day 0-9,"− ((−):Grade 0, Normal); also recorded: + ((+):Grade 1, Mild)"
same,Banff grade: Transplant Glomerulopathy,[2]; 10 mg from day 0-9,"− ((−):Grade 0, Normal); also recorded: + ((+):Grade 1, Mild)"
same,Banff grade: Tubular Atrophy,[2]; 10 mg from day 0-9,"+ ((+):Grade 1, Mild)"
same,Banff grade: Tubulitis,[2]; 10 mg from day 0-9,"− ((−):Grade 0, Normal)"
same,Banff grade: Vasculitis,[2]; 10 mg from day 0-9,"+ ((+):Grade 1, Mild); also recorded: +++ ((+++):Grade 3, Severe)"
same,approximate cumulative reduction in Banff score: fibro-intimal hyperplasia,[2]; 10 mg/kg PO day 0-9,~63%
same,approximate cumulative reduction in Banff score: glomerulitis,[2]; 10 mg/kg PO day 0-9,~75%
same,approximate cumulative reduction in Banff score: glomerulosclerosis,[2]; 10 mg/kg PO day 0-9,~83%
same,approximate cumulative reduction in Banff score: interstitial inflammation,[2]; 10 mg/kg PO day 0-9,~50%
same,approximate cumulative reduction in Banff score: mesangiolysis,[2]; 10 mg/kg PO day 0-9,~83%
same,approximate cumulative reduction in Banff score: transplant glomerulopathy,[2]; 10 mg/kg PO day 0-9,~79%
same,approximate cumulative reduction in Banff score: tubular atrophy,[2]; 10 mg/kg PO day 0-9,~40%
same,approximate cumulative reduction in Banff score: tubulitis,[2]; 10 mg/kg PO day 0-9,~100%
same,approximate cumulative reduction in Banff score: vasculitis,[2]; 10 mg/kg PO day 0-9,~33%
same,Banff grade: Fibro-intimal Hyperplasia,[2]; 20 mg from day 0-9,"++ ((++):Grade 2, Moderate); also recorded: + ((+):Grade 1, Mild)"
same,Banff grade: Glomerulitis,[2]; 20 mg from day 0-9,"++ ((++):Grade 2, Moderate); also recorded: + ((+):Grade 1, Mild); also recorded: − ((−):Grade 0, Normal)"
same,Banff grade: Glomerulosclerosis,[2]; 20 mg from day 0-9,"− ((−):Grade 0, Normal)"
same,Banff grade: Inflammation,[2]; 20 mg from day 0-9,"+ ((+):Grade 1, Mild)"
same,Banff grade: Mesangiolysis,[2]; 20 mg from day 0-9,"− ((−):Grade 0, Normal)"
same,Banff grade: Transplant Glomerulopathy,[2]; 20 mg from day 0-9,"− ((−):Grade 0, Normal)"
same,Banff grade: Tubular Atrophy,[2]; 20 mg from day 0-9,"+ ((+):Grade 1, Mild); also recorded: − ((−):Grade 0, Normal)"
same,Banff grade: Tubulitis,[2]; 20 mg from day 0-9,"− ((−):Grade 0, Normal)"
same,Banff grade: Vasculitis,[2]; 20 mg from day 0-9,"+++ ((+++):Grade 3, Severe); also recorded: − ((−):Grade 0, Normal)"
same,approximate cumulative reduction in Banff score: fibro-intimal hyperplasia,[2]; 20 mg/kg PO day 0-9,~44%
same,approximate cumulative reduction in Banff score: glomerulitis,[2]; 20 mg/kg PO day 0-9,~38%
same,approximate cumulative reduction in Banff score: glomerulosclerosis,[2]; 20 mg/kg PO day 0-9,~100%
same,approximate cumulative reduction in Banff score: interstitial inflammation,[2]; 20 mg/kg PO day 0-9,~67%
same,approximate cumulative reduction in Banff score: mesangiolysis,[2]; 20 mg/kg PO day 0-9,~100%
same,approximate cumulative reduction in Banff score: transplant glomerulopathy,[2]; 20 mg/kg PO day 0-9,~100%
same,approximate cumulative reduction in Banff score: tubular atrophy,[2]; 20 mg/kg PO day 0-9,~85%
same,approximate cumulative reduction in Banff score: tubulitis,[2]; 20 mg/kg PO day 0-9,~100%
same,approximate cumulative reduction in Banff score: vasculitis,[2]; 20 mg/kg PO day 0-9,~50%
